Measured values: the NIST ThermoML archive (doi:10.1016/j.fluid.2006.05.032)

Test: xn = mol fraction of the nth substance listed
Conditions: Liquid, Vibrating tube method

Cc1ccccc1 [toluene] + CCCO
mass density [kg/m3]
Conditions	x2 = 0	x2 = 0.125	x2 = 0.25	x2 = 0.375	x2 = 0.5	x2 = 0.625	x2 = 0.75	x2 = 0.875
293.15 K, 100 kPa	867.1	860.6	854.5	848.1	841.2	833.5	825.1	815.3
293.15 K, 5000 kPa	870.6	864.1	858.2	851.7	844.7	837	828.7	818.9
293.15 K, 10000 kPa	874.2	867.7	861.7	855.1	848.4	840.6	832.3	822.6
293.15 K, 15000 kPa	877.6	871.2	865.2	858.6	851.8	844.1	835.8	826.1
293.15 K, 20000 kPa	881.1	874.5	868.5	861.9	855.1	847.4	839.2	829.4
293.15 K, 25000 kPa	884.2	877.8	871.7	865.1	858.3	850.6	842.4	832.6
293.15 K, 30000 kPa	887.3	880.9	874.9	868.3	861.5	853.7	845.4	835.7
293.15 K, 35000 kPa	890.3	883.9	877.9	871.3	864.5	856.7	848.4	838.7
293.15 K, 40000 kPa	893.3	886.9	880.9	874.2	867.4	859.7	851.3	841.7
293.15 K, 45000 kPa	896.1	889.7	883.7	877.1	870.3	862.6	854.1	844.4
293.15 K, 50000 kPa	898.9	892.5	886.5	879.9	873.1	865.3	856.9	847.2
293.15 K, 55000 kPa	901.6	895.2	889.2	882.6	875.7	868	859.6	849.7
293.15 K, 60000 kPa	904.2	897.9	891.8	885.2	878.3	870.6	862.1	852.3
293.15 K, 65000 kPa	906.7	900.5	894.4	887.7	880.9	873.1	864.7	854.8
303.15 K, 100 kPa	857.5	851.1	845	838.6	832	824.4	816.1	806.6
303.15 K, 5000 kPa	861.4	855	848.9	842.4	835.9	828.3	820.1	810.6
303.15 K, 10000 kPa	865.1	858.8	852.7	846.2	839.8	832.2	824	814.3
303.15 K, 15000 kPa	869	862.4	856.4	849.9	843.4	835.8	827.8	818.3
303.15 K, 20000 kPa	872.4	866	859.9	853.4	846.9	839.4	831.3	821.7
303.15 K, 25000 kPa	875.8	869.4	863.3	856.8	850.4	842.8	834.6	825.2
303.15 K, 30000 kPa	879	872.6	866.6	860.1	853.5	846	837.7	828.3
303.15 K, 35000 kPa	882.1	875.8	869.8	863.3	856.7	849.2	840.8	831.4
303.15 K, 40000 kPa	885.2	878.9	872.8	866.4	859.7	852.3	843.9	834.4
303.15 K, 45000 kPa	888.2	881.8	875.6	869.3	862.6	855.1	846.9	837.3
303.15 K, 50000 kPa	891.1	884.8	878.5	872.2	865.5	858	849.7	840.1
303.15 K, 55000 kPa	894	887.6	881.4	875.1	868.6	860.9	852.5	843
303.15 K, 60000 kPa	896.7	890.3	884.1	877.8	871.1	863.6	855.2	845.6
303.15 K, 65000 kPa	899.2	893	886.7	880.4	873.7	866.1	857.8	848.2
313.15 K, 100 kPa	847.8	841.3	835.1	829	822.4	815.2	807.3	797.9
313.15 K, 5000 kPa	852	845.5	839.3	833.1	826.6	819.3	811.5	802.1
313.15 K, 10000 kPa	856.1	849.6	843.4	837.2	830.7	823.4	815.5	806.2
313.15 K, 15000 kPa	859.9	853.6	847.4	841.2	834.7	827.5	819.3	810
313.15 K, 20000 kPa	863.5	857.3	851.1	844.9	838.4	831.2	823	813.6
313.15 K, 25000 kPa	867.1	860.9	854.7	848.5	841.9	834.7	826.5	817.1
313.15 K, 30000 kPa	870.5	864.3	858.1	851.9	845.4	838.1	829.9	820.5
313.15 K, 35000 kPa	873.8	867.6	861.5	855.3	848.7	841.4	833.2	823.7
313.15 K, 40000 kPa	877	870.8	864.7	858.4	851.9	844.6	836.4	826.9
313.15 K, 45000 kPa	880.2	874	867.8	861.6	855	847.7	839.4	830
313.15 K, 50000 kPa	883.3	876.9	870.8	864.5	857.9	850.6	842.5	833
313.15 K, 55000 kPa	886.2	879.9	873.8	867.5	860.9	853.5	845.3	835.9
313.15 K, 60000 kPa	889	882.7	876.6	870.4	863.7	856.3	848.2	838.7
313.15 K, 65000 kPa	891.8	885.5	879.3	873.1	866.5	859.1	850.9	841.4
323.15 K, 100 kPa	838.4	831.7	825.5	819.3	812.9	805.9	798.2	789.3
323.15 K, 5000 kPa	842.7	836.2	829.9	823.8	817.3	810.3	802.6	793.6
323.15 K, 10000 kPa	847	840.5	834.3	828	821.6	814.5	806.9	797.9
323.15 K, 15000 kPa	851.1	844.5	838.4	832.2	825.8	818.7	810.9	801.8
323.15 K, 20000 kPa	855	848.5	842.3	836.1	829.7	822.6	814.8	805.7
323.15 K, 25000 kPa	858.9	852.2	846.1	839.9	833.5	826.3	818.6	809.5
323.15 K, 30000 kPa	862.5	855.9	849.7	843.5	837.1	829.9	822.2	813
